These results are taken from patent US9409917B2, “Heterocyclic amide derivatives as P2X7 receptor antagonists” (ACTELION PHARMACEUTICALS LTD., priority 2012, dated 2016).

Sequence of human recombinant P2X7 receptor (Q99572 whole entry): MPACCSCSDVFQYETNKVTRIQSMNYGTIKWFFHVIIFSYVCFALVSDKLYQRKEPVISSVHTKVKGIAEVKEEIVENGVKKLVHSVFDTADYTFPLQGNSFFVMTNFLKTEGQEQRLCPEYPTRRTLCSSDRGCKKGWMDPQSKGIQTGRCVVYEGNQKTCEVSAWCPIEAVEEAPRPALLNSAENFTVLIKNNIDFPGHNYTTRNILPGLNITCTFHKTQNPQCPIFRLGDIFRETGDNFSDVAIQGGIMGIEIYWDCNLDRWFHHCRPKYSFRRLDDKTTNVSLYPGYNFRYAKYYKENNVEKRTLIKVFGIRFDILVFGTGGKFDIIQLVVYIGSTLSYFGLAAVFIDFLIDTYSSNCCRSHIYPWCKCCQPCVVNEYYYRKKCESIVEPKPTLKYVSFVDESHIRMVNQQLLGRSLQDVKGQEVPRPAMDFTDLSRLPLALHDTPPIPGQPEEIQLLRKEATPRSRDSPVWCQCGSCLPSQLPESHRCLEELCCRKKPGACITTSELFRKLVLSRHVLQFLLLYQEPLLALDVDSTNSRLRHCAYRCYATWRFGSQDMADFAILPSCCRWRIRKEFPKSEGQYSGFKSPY

The first test has as its target human recombinant P2X7 receptor (Homo sapiens (Human), UniProt Q99572). As to the kind of experiment: YO-PRO assay: P2X7 receptor antagonistic activity (ATP-induced YO-PRO-1 uptake, FLIPR).
Settings: not given
The IC50 is the point on the concentration scale where inhibition reaches its midpoint. `O=C(NCc1cccc(C(F)(F)F)c1Cl)C1CCOc2ncccc21` (racemic) [Example 40, rac-3,4-Dihydro-2H-pyrano[2,3-b]pyridine-4-carboxylic acid 2-chloro-3-trifluoromethyl-benzylamide]: the IC50 was found to be 2.7 nM.

As for `O=C(NCC(c1cnc(C(F)(F)F)nc1)N1CCOCC1)C1COc2ncccc21` (single isomer, unassigned) [Example 60, rac-2,3-Dihydro-furo[2,3-b]pyridine-3-carboxylic acid [2-morpholin-4-yl-2-(2-trifluoromethyl-pyrimidin-5-yl)-ethyl]-amide], the IC50 was determined as 29 nM.

`[2H]C([2H])([2H])c1cc(Cl)cc(Cl)c1CNC(=O)C1COc2ncccc21` (single isomer, unassigned) [Example 98, 2,3-Dihydro-furo[2,3-b]pyridine-3-carboxylic acid 2,4-dichloro-6-trideuteromethyl-benzylamide]: the IC50 amounted to 1.8 nM.

Turning to `O=C(NC1(c2ccc(Cl)cc2Cl)CC1)C1CCOc2ncccc21` (racemic) [Example 58, rac-3,4-Dihydro-2H-pyrano[2,3-b]pyridine-4-carboxylic acid [1-(2,4-dichloro-phenyl)-cyclopropyl]-amide], the IC50 was 2700 nM.

As to `O=C(NCc1ccc(C(F)(F)F)cc1Cl)C1COc2ncccc21` (racemic) [Example 103, rac-2,3-Dihydro-furo[2,3-b]pyridine-3-carboxylic acid 2-chloro-4-trifluoromethyl-benzylamide], the IC50 was found to be 80.4 nM.

Regarding `Cc1c(Cl)cccc1CNC(=O)C1CCOc2ncccc21` (racemic) [Example 31, rac-3,4-Dihydro-2H-pyrano[2,3-b]pyridine-4-carboxylic acid 3-chloro-2-methyl-benzylamide], the IC50 was determined as 16 nM.

In the case of `O=C1CC(NC(=O)C2COc3ncccc32)c2ccccc21` (racemic) [Example 88, rac-2,3-Dihydro-furo[2,3-b]pyridine-3-carboxylic acid (3-oxo-indan-1-yl)-amide], the IC50 was 1450 nM.

As for `O=C(NCc1c(F)cc(Cl)cc1Cl)C1COc2ncccc21` (racemic) [Example 15, rac-2,3-Dihydro-furo[2,3-b]pyridine-3-carboxylic acid 2,4-dichloro-6-fluoro-benzylamide], the 50% inhibitory concentration (IC50) is 66.8 nM.

Regarding `O=C(NCCc1ccc(Cl)cc1Cl)C1CCOc2ncccc21` (racemic) [Example 38, rac-3,4-Dihydro-2H-pyrano[2,3-b]pyridine-4-carboxylic acid [2-(2,4-dichloro-phenyl)-ethyl]-amide], the half-inhibitory concentration (IC50) was determined as 67.1 nM.

Regarding `Cc1cc(Cl)cc(Cl)c1CNC(=O)C1(F)COc2ncccc21` (racemic) [Example 11, rac-3-Fluoro-2,3-dihydro-furo[2,3-b]pyridine-3-carboxylic acid 2,4-dichloro-6-methyl-benzylamide], the IC50 is 4.8 nM.

Regarding `O=C(NCc1ccc(F)cc1Cl)C1COc2ncccc21` (racemic) [Example 43, rac-2,3-Dihydro-furo[2,3-b]pyridine-3-carboxylic acid 2-chloro-4-fluoro-benzylamide], the IC50 is 86.8 nM.

Turning to `O=C(NCc1ccc(Cl)cc1)C1COc2ncccc21` (racemic) [Example 46, rac-2,3-Dihydro-furo[2,3-b]pyridine-3-carboxylic acid 4-chloro-benzylamide], the IC50 was 795 nM.

With `O=C(NCCc1ccc(Cl)cc1Cl)C1COc2ncccc21` (racemic) [Example 49, rac-2,3-Dihydro-furo[2,3-b]pyridine-3-carboxylic acid [2-(2,4-dichloro-phenyl)-ethyl]-amide], the IC50 was 157 nM.

On to `O=C(NCc1ccc(C(F)(F)F)cc1)C1CCOc2ncccc21` (racemic) [Example 36, rac-3,4-Dihydro-2H-pyrano[2,3-b]pyridine-4-carboxylic acid 4-trifluoromethyl-benzylamide], for which the IC50 stood at 334 nM.

As for `O=C(NCC1(O)CCCCC1)C1CCOc2ncccc21` (racemic) [Example 10, rac-3,4-Dihydro-2H-pyrano[2,3-b]pyridine-4-carboxylic acid (1-hydroxy-cyclohexylmethyl)-amide], the IC50 was found to be 3170 nM.

For `COCc1cc(Cl)cc(Cl)c1CNC(=O)C1COc2ncccc21` (racemic) [Example 72, rac-2,3-Dihydro-furo[2,3-b]pyridine-3-carboxylic acid 2,4-dichloro-6-methoxymethyl-benzylamide], the half-maximal inhibitory concentration (IC50) was 14.6 nM.

Consider `O=C(NCc1c(Cl)cc(Cl)cc1Cl)C1COc2ncccc21` (racemic) [Example 114, rac-2,3-Dihydro-furo[2,3-b]pyridine-3-carboxylic acid 2,4,6-trichloro-benzylamide], for which the IC50 amounted to 12.5 nM.

Take `O=C(NC(CO)C1CCCCCC1)C1COc2ncccc21` (single isomer, unassigned) [Example 14, rac-2,3-Dihydro-furo[2,3-b]pyridine-3-carboxylic acid (1-cycloheptyl-2-hydroxy-ethyl)-amide]: the half-maximal inhibitory concentration (IC50) turned out to be 117 nM.

Consider `O=C(NCCCc1ccc(Cl)cc1Cl)C1COc2ncccc21` (racemic) [Example 106, rac-2,3-Dihydro-furo[2,3-b]pyridine-3-carboxylic acid [3-(2,4-dichloro-phenyl)-propyl]-amide], for which the IC50 worked out at 346 nM.

Consider `O=C(NCc1cccc(C(F)(F)F)c1Cl)C1COc2ncccc21` (racemic) [Example 16, rac-2,3-Dihydro-furo[2,3-b]pyridine-3-carboxylic acid 2-chloro-3-trifluoromethyl-benzylamide], for which the concentration for half-maximal inhibition (IC50) turned out to be 12.6 nM.

`O=C(NCc1c(Cl)cc(Cl)cc1C(F)(F)F)C1COc2ncccc21` (racemic) [Example 68, rac-2,3-Dihydro-furo[2,3-b]pyridine-3-carboxylic acid 2,4-dichloro-6-trifluoromethyl-benzylamide]: the half-inhibitory concentration (IC50) worked out at 13.8 nM.

For `[2H]C([2H])([2H])c1cc(Cl)cc(Cl)c1CNC(=O)C1COc2ncccc21` (single isomer, unassigned) [Example 97, 2,3-Dihydro-furo[2,3-b]pyridine-3-carboxylic acid 2,4-dichloro-6-trideuteromethyl-benzylamide], the IC50 came to 20 nM.

The same test, now with this note: read-out: IC50 [nM], antagonistic activities with respect to the P2X7 receptor; HEK-293 cells expressing human recombinant P2X7 receptor; YO-PRO-1 fluorescence; ATP 250 μM, 90 minutes; highest concentration 10 μM.
As to `O=C(N[C@H](CO)C1CCCCC1)C1COc2ncccc21` (single isomer, unassigned) [Example 2], the IC50 is 106 nM.

In the case of `Cc1cc(Cl)cc(Cl)c1CNC(=O)C1CCOc2ncccc21` (single isomer, unassigned) [Example 17, 3,4-Dihydro-2H-pyrano[2,3-b]pyridine-4-carboxylic acid 2,4-dichloro-6-methyl-benzylamide], the half-inhibitory concentration (IC50) was 1.3 nM.

Turning to `O=C(NCC(c1ccc(C(F)(F)F)nc1)N1CCOCC1)C1COc2ncccc21` (stereo not drawn) [Example 92, 2,3-Dihydro-furo[2,3-b]pyridine-3-carboxylic acid [2-morpholin-4-yl-2-(6-trifluoromethyl-pyridin-3-yl)-ethyl]-amide], the IC50 turned out to be 82.2 nM.

For the molecule `C[C@@H](NC(=O)C1COc2ncccc21)c1ccc(Cl)cc1Cl` (stereo partly drawn) [Example 70, 2,3-Dihydro-furo[2,3-b]pyridine-3-carboxylic acid [(R)-1-(2,4-dichloro-phenyl)-ethyl]-amide], the IC50 came out at 110 nM.

Turning to `O=C(NC1CC1c1ccccc1)C1COc2ncccc21` (stereo not drawn) [Example 64, 2,3-Dihydro-furo[2,3-b]pyridine-3-carboxylic acid (2-phenyl-cyclopropyl)-amide], the half-inhibitory concentration (IC50) was found to be 4850 nM.

For the molecule `O=C(NC1CCc2cccc(Br)c21)C1COc2ncccc21` (stereo not drawn) [Example 113, 2,3-Dihydro-furo[2,3-b]pyridine-3-carboxylic acid (7-bromo-indan-1-yl)-amide], the IC50 is 35.9 nM.

With `O=C(NCC(c1cnc(C(F)(F)F)nc1)N1CCOCC1)C1COc2ncccc21` (single isomer, unassigned) [Example 81, 2,3-Dihydro-furo[2,3-b]pyridine-3-carboxylic acid [2-morpholin-4-yl-2-(2-trifluoromethyl-pyrimidin-5-yl)-ethyl]-amide], the IC50 was found to be 7520 nM.

For `C[C@@H](NC(=O)C1COc2ncccc21)c1ccc(Cl)cc1Cl` (stereo partly drawn) [Example 71, 2,3-Dihydro-furo[2,3-b]pyridine-3-carboxylic acid [(R)-1-(2,4-dichloro-phenyl)-ethyl]-amide], the IC50 was found to be 36.5 nM.

For the molecule `O=C(NCc1c(Cl)cc(Cl)cc1Br)C1COc2ncccc21` (single isomer, unassigned) [Example 80, 2,3-Dihydro-furo[2,3-b]pyridine-3-carboxylic acid 2-bromo-4,6-dichloro-benzylamide], the IC50 turned out to be 4.1 nM.

For `O=C(NCC(c1cnc(C(F)(F)F)nc1)N1CCOCC1)C1COc2ncccc21` (stereo not drawn) [Example 84, 2,3-Dihydro-furo[2,3-b]pyridine-3-carboxylic acid [2-morpholin-4-yl-2-(2-trifluoromethyl-pyrimidin-5-yl)-ethyl]-amide], the IC50 worked out at 20.8 nM.

Consider `Cc1cc(Cl)cc(Cl)c1CNC(=O)C1CCOc2ncccc21` (single isomer, unassigned) [Example 18, 3,4-Dihydro-2H-pyrano[2,3-b]pyridine-4-carboxylic acid 2,4-dichloro-6-methyl-benzylamide], for which the half-maximal inhibitory concentration (IC50) is 1.6 nM.

`O=C1c2c(Cl)cc(Cl)cc2CC1NC(=O)C1COc2ncccc21` (stereo not drawn) [Example 116, 2,3-Dihydro-furo[2,3-b]pyridine-3-carboxylic acid (5,7-dichloro-1-oxo-indan-2-yl)-amide]: the IC50 was 9010 nM.

As for `O=C(NCc1c(Cl)cc(Cl)cc1Br)C1COc2ncccc21` (single isomer, unassigned) [Example 79, 2,3-Dihydro-furo[2,3-b]pyridine-3-carboxylic acid 2-bromo-4,6-dichloro-benzylamide], the IC50 came out at 51.1 nM.

With `O=C(NCC(c1cnc(C(F)(F)F)nc1)N1CCOCC1)C1COc2ncccc21` (stereo not drawn) [Example 83, 2,3-Dihydro-furo[2,3-b]pyridine-3-carboxylic acid [2-morpholin-4-yl-2-(2-trifluoromethyl-pyrimidin-5-yl)-ethyl]-amide], the half-inhibitory concentration (IC50) came out at 124 nM.
